Measured values published in patent US20100184732A1, “METHOD OF LONG-TERM TREATMENT OF GRAFT-VERSUS-HOST DISEASE USING TOPICAL ACTIVE CORTICOSTEROIDS” (priority 2000, published 2010).

What was measured:
[1] = test system: patients with Grade II GVHD with gastrointestinal symptoms; test: Phase III randomized, double-blind, placebo-controlled trial of oral BDP plus 10 days of prednisone: treatment failure and survival; type: in vivo, human; conditions: for Treatment failure rate (95% CI): Kaplan-Meier estimate
From the text: The Secondary objectives of the study were: • 1. To compare the proportion of treatment failures in the two groups on Study Days 10, 30, 50, 60, and 80. • 2. To compare the treatment groups with respect to cumulative systemic corticosteroid exposure. • 3. […] To compare the treatment groups with respect to total deaths and cause of death through 200 days post-transplant. • 6.
To be eligible for entry into the study, patients must be at least 10 days post allogeneic hematopoietic cell transplantation, have GI symptoms consistent with Grade II GVHD, and have endoscopic evidence of GVHD. The diagnosis of GVHD was confirmed by biopsy of the intestine (esophagus, stomach, small intestine, or colon) or skin.
This was a multi-center, randomized, double-blind, placebo-controlled, parallel-group study in patients with Grade II GVHD with GI symptoms. To determine eligibility for entry into the study, patients must undergo a screening evaluation, including intestinal or skin biopsy and infection work-up.
The randomization was stratified by the source of the allograft (two HLA haplotype identical sibling versus all other), and by topical corticosteroid use (yes versus no). All patients received 10 days of prednisone at 1 mg/kg/day (or an equivalent dose of intravenous [IV] corticosteroid).
For all patients, the second dose of study drug was administered on the morning of Study Day 2, after which dosing was 4 times daily until Study Day 50.
All patients are monitored per standard post transplant routine in the hospital or outpatient clinic. Patients underwent study evaluations, included blood specimens for PK analysis, on Study Days 10, 30, 50, 60, and 80. In addition, adverse events that occurred during the interval since the prior visit are assessed and recorded. Following the final dose of study drug on the morning of Study Day 50, timed blood samples were obtained for up to 24 hours for PK analysis from some patients.
• 1. […] Karnofsky Scale score if the patient is 16 years of age or older or the Lansky Scale score if the patient is younger than 16 years of age.
• 1. Adverse events. • 2. Cumulative prednisone dose (per kg of body weight). • 3. Worsening of GVHD as determined through the assessment of diarrhea, rash, and bilirubin levels. • 4. HPA axis function. • 5. Hematology measurements (with differential, including eosinophils) at Baseline and Study Day 50. • 6. Serum chemistry and urinalysis measurements at Baseline and Study Day 50. • 7. Patient survival through day 200 post-transplant.
The primary efficacy endpoint of this two-arm study is the time to treatment failure. The primary efficacy analysis will compare the time to treatment failure through Study Day 50 using a log-rank test controlling for patient randomization stratum. Product-limit estimates for time to failure will be provided for descriptive purposes. The null hypothesis for the log-rank test is that time to failure is homogeneous across the treatment groups.
Secondary analyses of treatment failure compared the treatment groups with respect to proportion of treatment failures and Karnofsky Scale (or Lansky Scale) scores at key time points.
Both regimens included oral prednisone (1 mg/kg/day) or an equivalent dose of IV methylprednisolone (dose of IV methylprednisolone=0.8×dose of oral prednisone) given in 2 divided doses per day on Study Days 1 to 10.
On Study Day 10, patients were evaluated for the signs and symptoms of GVHD. […] Starting on Study Day 17, physiologic replacement doses of prednisone were given for the remainder of the study. If the investigator determined that GVHD was not controlled on Study Day 10, patients discontinued study drug but continued prednisone initially at 1 mg/kg/day; these patients were considered to be treatment failures. In treatment failure cases, physicians subsequently modified prednisone dosage as deemed appropriate.

[2] = test system: patients with gastrointestinal GVHD; conditions: cited from earlier work
patients with GVHD = conditions: high-dose prednisone, 2 mg per kg per day; cited from earlier work

Structure (SMILES)	Day 200 survival rate (95% CI) ([1]; 200 days post-transplant, Safety Population)	Treatment failure rate (95% CI) ([1]; Study Day 10)	Treatment failure rate (95% CI) ([1]; Study Day 30)	Treatment failure rate (95% CI) ([1]; Study Day 50)	Treatment failure rate (95% CI) ([1]; Study Day 60)	Treatment failure rate (95% CI) ([1]; Study Day 80)	time to treatment failure through Day 50 (primary endpoint), significance versus placebo ([1]; through Day 50, p-value 0.1177)	time to treatment failure through Day 80 (secondary endpoint), significance versus placebo ([1]; through Day 80, p-value 0.0226)	appetite, oral intake, nausea and diarrhea over the course of therapy ([2]; 8 mg daily oral, BDP alone and added to prednisone)	treatment-related adverse events ([2]; 8 mg/day for 28 days)	time to improvement ([2]; BDP as monotherapy)	safety and efficacy in mild-to-moderate intestinal GVHD ([2]; alone or added to prednisone)	complete and sustained remission of gastrointestinal symptoms (patients with GVHD)
CCC(=O)OCC(=O)[C@@]1(OC(=O)CC)[C@@H](C)C[C@H]2[C@@H]3CCC4=CC(=O)C=C[C@]4(C)[C@@]3(Cl)[C@@H](O)C[C@@]21C [BDP, beclomethasone dipropionate]	0.91 (0.86, 0.98)	0.14 (0.08, 0.24)	0.25 (0.18, 0.37)	0.31 (0.23, 0.43)	0.33 (0.24, 0.45)	0.39 (0.30, 0.52)	did not achieve statistical significance	did achieve statistical significance	Significant improvement	No significant treatment-related adverse events	7 to 10 days	safe and effective	–
C[C@]12C=CC(=O)C=C1CC[C@@H]1[C@@H]2C(=O)C[C@@]2(C)[C@H]1CC[C@]2(O)C(=O)CO [Prednisone, prednisone]	–	–	–	–	–	–	–	–	–	–	–	–	50-70 % of patients
